According to patent US8686051B2, “Pharmaceutical composition for treatment of diabetic complications” (VLife Sciences Technologies Pvt. Ltd., priority 2007, dated 2014):
Structures can show the parent of a compound that is named as a salt.

Legend:
[1] = target: T1, purified human recombinant aldose reductase (Homo sapiens, UniProt P15121); test: Aldose reductase (AR) inhibition, spectrophotometric NADPH oxidation assay; format: biochemical; settings: for IC50: read-out: Aldose reductase inhibitory IC50
T1 construct: made in house; host or cells: E. coli
From the text: For enzyme inhibition studies, purified human recombinant aldose reductase (expressed in E. coli) was used for testing the aldose reductase (AR) inhibitory activity of beta adrenergic antagonists by a spectrophotometric method, using glyceraldehydes as substrate, (Mol. Vis. 2004, 10, 148-154). Recombinant human aldose reductase was purified from bacterial cultures. Enzyme from expression cultures was extracted and purified essentially as described previously (J Biol Chem 1992; 267: 24833-40) with the exception that affinity chromatography over AffiGel Blue (Bio-Rad) was used as a final purification step. AR activity was assayed according to the method described by Hayman and Kinoshita (J Biol Chem 1965; 240: 877-82). The assay mixture in 1 ml contained 50 μM potassium phosphate buffer pH 6.2, 0.4 mM lithium sulfate, 5 μM 2-mercaptoethanol, 10 μM DL-glyceraldehyde, 0.1 μM NADPH, and enzyme preparation (rat lens or recombinant enzyme). Appropriate blanks were employed for corrections. The assay mixture was incubated at 37° C. and initiated by the addition of NADPH at 37° C. The change in the absorbance at 340 nm due to NADPH oxidation was followed in a Cary Bio 100 spectrophotometer. For inhibition studies concentrated stocks of the Beta adrenergic antagonists, timolol, esmolol, sotalol, nebivolol, carvedilol, metoprolol and labetalol were prepared in water. Various concentrations of Beta adrenergic antagonists, as test compounds, were added to the assay mixture and incubated for 5-10 minutes before initiating the reaction by NADPH as described above. The percent of inhibition with test compounds was calculated considering the AR activity in the absence of inhibitor was 100%. The concentration of each test sample giving 50% inhibition (IC50) was then estimated.

[2] = tested on: formation of sorbitol in red blood cells (RBC); test: Estimation of sorbitol in red blood cells incubated with 30 mM glucose; format: cell-based
Protocol: The cells were incubated with 30 mM glucose in vitro. Sorbitol was estimated by the method of reported by Malone, et al. Diabetes; 1980; 29: 861-864.

[3] = tested on: collagen (hydroxyproline); test: Measurement of collagen (tissue hydroxyproline by HPLC); format: in vivo, rat; design: Collagen production: unit not given here
From the text: The synthesis of the 19 known collagens occurs within the cell, as it does for other proteins. The collagen molecule is characterized by the repeating sequence Gly-X-Y, with X often being proline and Y often being hydroxyproline. Hydroxyproline is the end product of collagen breakdown. For this reason, tissue hydroxyproline level is an indirect and objective variable of tissue collagen production. In many experimental studies, hydroxyproline has been used to assess tissue collagen production.
Collagen levels in the tissue were measured by use of high performance liquid chromatography (HPLC) for separating and quantitating the levels of hydroxyproline from the rat tissue. A reverse-phase Nova-Pak C18 column and solvent system (140 mM sodium acetate, 0.05% triethylamine (TEA), 6% acetonitrile) were used, resulting in complete separation of hydroxyproline. Recovery of standards ranged from 89 to 103% and intra-assay variability was <8%. Additionally, [^3H]hydroxyproline measurements were used to examine changes in collagen turnover in the rat labeled with [^3H]proline and “chased” in the presence of 10 mM unlabeled proline.

[4] = tested on: nitric oxide (nitrate/nitrite); test: Measurement of nitric oxide (nitrite/nitrate) in tissue by chemiluminescence; format: in vivo, rat; settings: total versus controls
Protocol: Fresh tissue (approximately 0.2 g) was added to 1 ml cold homogenizing buffer (20 mmol/l HEPES-KOH, pH 7.9; 25% glycerol; 420 mmol/l NaCl; 1.5 mmol/l MgCl2; 0.2 mmol/l EDTA; 0.5 mmol/l dithiothreitol; 0.2 mmol/l phenylmethylsulphonyl fluoride). The buffered tissues were homogenized at maximum speed for 5 seconds and cooled in ice-water for 30 seconds. This procedure was repeated five times to ensure complete tissue destruction.
Two volumes of 100% cold ethanol were added to the homogenized samples; these were vortexed and incubated on ice for 30 minutes. The homogenate was centrifuged at 12,000×g for 5 minutes at 4° C., and the supernatant transferred to a new tube on ice for NO measurement.
A rapid-response chemiluminescence analyzer was used to measure total gas phase NO (nitrate/nitrite). NO gas reacts with ozone, producing energy in the form of light, and the light is proportional to the quantity of NO present. The emission was measured using a luminometer to determine NO concentration.
The sample tube was securely connected to a Zero Gas Filter (Sievers Instruments) and room air passed through the device for 5 minutes. […] The sample gas was then exposed to the ozone in the reaction vessel to form activated nitrogen dioxide (NO2), which was detected using a red-sensitive photomultiplier tube, and the output recorded using an integrating pen recorder. […]

[5] = tested on: wound on dorsal skin of diabetic Wistar rats; test: Diabetic wound healing in streptozocin-diabetic rats, topical treatment; format: in vivo; settings: for Wound diameter: diabetic rats, topical
Protocol: Wistar rats were kept in standard autoclaved rodent cages with ad libitum food (Harland Tekland Irradiated Rodent Diet) and autoclaved water. The rats were housed on Harlan Tek-chip pelleted paper in static micro isolators maintained at 72° F., 60% humidity, and a 12 hour light cycle. The animals were kept at the facility for 10 days to get accustomed to the environment, after the arrival from the vendor. Diabetes was induced in the rats by intraperitoneal injection of 50 mg/kg body weight of streptozocin on 5 consecutive days. The wound was created on the rat by using a contortive scratcher to make a 2 mm incision with 0.57-0.62 mm depth on the dorsal skin of the animal. The area was shaved and sanitized with normal lugol's iodine prior to use of the scratcher.
Esmolol hydrochloride (10%) was administered three times daily or the standard treatment control, by smearing the agent directly onto the wound. The positive control used was platelet derived growth factor that is commercially available. The treatment was continued until the wounds of the treated mice were completely healed. […]
Several wound healing parameters were measured on the day 3, day 7, day 12 and day 19 of the creation of the wound. These parameters are reported in separate tables below. The wound size and weight of the rats was measured every alternate day. Specifically, the length and width of the wound were measured by use of micro vernier calipers, and the tensile strength at the edge of the wound was also recorded every other day. The wound diameter was measured by the same investigator on day 3, 12, 19 by the use of an electronic digital vernier caliper (B&D, Pomanus, N.J.). The caliper was calibrated just before the measurement by adjusting the zero error. […]
The area for evaluation was cut clean by an Eppendorf 10 size scalpel and the tissue was preserved in 10% of phosphate buffered formalin solution. The tissues were removed from this formalin solution and immersed in 100% of ethanol for 6 hours. The tissue were again removed and preserved for evaluation in 10% Bouins solution. […]
The quantity of exudation from wound was measured by the use of a micropipette (Eppendorf). […]
The adherence is the strength by which the two ends of the wound are attached together and measured by a Velcro index meter.
Fluid accumulation was measured by volume of fluid obtained from wound using micro pipette as described in Table 8. […]

**Q.** `COCCc1ccc(OCC(O)CNC(C)C)cc1` (centres unmarked) [Metoprolol, metoprolol tartrate] was tested. Which IC50 [1] did it give?
**A.** > 350 µM

**Q.** With `CC(C)(C)NC[C@H](O)COc1nsnc1N1CCOCC1` [Timolol, timolol maleate] as the compound, how does the “Sorbitol concentration in RBC” value ([2]; RBC under 30 mM glucose + 250 μM of timolol) read?
**A.** 17.34 µg/mL

**Q.** And the “aldose reductase inhibition (in words)” value [1]?
**A.** effective aldose reductase inhibition

**Q.** And the IC50 [1]?
**A.** 250 µM

**Q.** For `CC(CCc1ccccc1)NCC(O)c1ccc(O)c(C(N)=O)c1` (centres unmarked) [Labetalol, labetalol hydrochloride], which IC50 [1] is on record?
**A.** > 350 µM

**Q.** For `OC(CNCC(O)C1CCc2cc(F)ccc2O1)C1CCc2cc(F)ccc2O1` (centres unmarked) [Nebivolol, nebivolol hydrochloride], which IC50 [1] is on record?
**A.** > 350 µM

**Q.** `COc1ccccc1OCCNCC(O)COc1cccc2[nH]c3ccccc3c12` (centres unmarked) [Carvedilol, carvedilol] was tested. Which IC50 [1] did it give?
**A.** > 350 µM

**Q.** For `COC(=O)CCc1ccc(OCC(O)CNC(C)C)cc1` (centres unmarked) [Esmolol, esmolol hydrochloride], which “Sorbitol concentration in RBC” value ([2]; RBC under 30 mM glucose + 150 μM of esmolol) is on record?
**A.** 16.16 µg/mL

**Q.** And the Collagen production ([3]; Day 3)?
**A.** 124

**Q.** And the Collagen production ([3]; Day 7)?
**A.** 287

**Q.** What about the Collagen production ([3]; Day 12) of the same compound?
**A.** 325

**Q.** What about the Collagen production ([3]; Day 19) of the same compound?
**A.** 288

**Q.** And the Collagen production ([3]; Total)?
**A.** 1024

**Q.** And the “Collagen production, % Increase” value ([3]; total versus controls)?
**A.** 68%

**Q.** And the “NO increase, % Increase” value [4]?
**A.** 53%

**Q.** And the “Ease of removal from wounds” value ([5]; Day 3)?
**A.** 2.6 +/− 0.2

**Q.** And the “Evaluation of biopsy wounds in diabetic rats” value (“Evaluation of biopsy wounds” below) ([5]; Day 3)?
**A.** 1.3 +/− 0.3

**Q.** And the Exudation ([5]; Day 3)?
**A.** 1.2 ± 0.2 µL

**Q.** And the Film transparency ([5]; Day 3)?
**A.** 1.7 +/− 0.3

**Q.** What about the Flexibility ([5]; Day 3) of the same compound?
**A.** 2.3 +/− 0.2

**Q.** And the Fluid accumulation ([5]; Day 3)?
**A.** 2.3 +/− 0.4

**Q.** And the Wound adherence ([5]; Day 3)?
**A.** 2.6 +/− 0.4

**Q.** What about the “Wound diameter: degree of contraction” value ([5]; Day 3) of the same compound?
**A.** 12.17 +/− 5.8%

**Q.** And the Wound diameter ([5]; Day 3)?
**A.** 1.28 +/− 0.12 MM

**Q.** And the “Ease of removal from wounds” value ([5]; Day 7)?
**A.** 2.8 +/− 0.3

**Q.** What about the “Evaluation of biopsy wounds” value ([5]; Day 7) of the same compound?
**A.** 1.3 +/− 0.2

**Q.** And the Exudation ([5]; Day 7)?
**A.** 2.7 ± 0.5 µL

**Q.** What about the Film transparency ([5]; Day 7) of the same compound?
**A.** 2.3 +/− 0.4

**Q.** What about the Flexibility ([5]; Day 7) of the same compound?
**A.** 2.4 +/− 0.5

**Q.** And the Fluid accumulation ([5]; Day 7)?
**A.** 2.7 +/− 0.5

**Q.** And the Wound adherence ([5]; Day 7)?
**A.** 3.3 +/− 0.3

**Q.** What about the “Ease of removal from wounds” value ([5]; Day 12) of the same compound?
**A.** 2.7 +/− 0.5

**Q.** What about the “Evaluation of biopsy wounds” value ([5]; Day 12) of the same compound?
**A.** 1.4 +/− 0.3

**Q.** What about the Exudation ([5]; Day 12) of the same compound?
**A.** 3.5 ± 0.6 µL

**Q.** And the Film transparency ([5]; Day 12)?
**A.** 2.6 +/− 0.6

**Q.** What about the Flexibility ([5]; Day 12) of the same compound?
**A.** 3.5 +/− 0.6

**Q.** And the Fluid accumulation ([5]; Day 12)?
**A.** 2.6 +/− 0.7

**Q.** What about the Wound adherence ([5]; Day 12) of the same compound?
**A.** 3.9 +/− 0.5

**Q.** What about the “Wound diameter: degree of contraction” value ([5]; Day 12) of the same compound?
**A.** 41.86 +/− 13.2%

**Q.** What about the Wound diameter ([5]; Day 12) of the same compound?
**A.** 1.37 +/− 0.17 MM

**Q.** What about the “Ease of removal from wounds” value ([5]; Day 19) of the same compound?
**A.** 2.5 +/− 0.4

**Q.** And the “Evaluation of biopsy wounds” value ([5]; Day 19)?
**A.** 1.5 +/− 0.3

**Q.** What about the Exudation ([5]; Day 19) of the same compound?
**A.** 4.9 ± 0.2 µL

**Q.** And the Film transparency ([5]; Day 19)?
**A.** 3.3 +/− 0.4

**Q.** And the Flexibility ([5]; Day 19)?
**A.** 3.9 +/− 0.8

**Q.** What about the Fluid accumulation ([5]; Day 19) of the same compound?
**A.** 2.5 +/− 0.5

**Q.** What about the Wound adherence ([5]; Day 19) of the same compound?
**A.** 4.7 +/− 0.5

**Q.** What about the “Wound diameter: degree of contraction” value ([5]; Day 19) of the same compound?
**A.** 98.64 +/− 9.6%

**Q.** What about the Wound diameter ([5]; Day 19) of the same compound?
**A.** 0.79 +/− 0.28 MM

**Q.** And the “Ease of removal from wounds” value ([5]; Total)?
**A.** 10.6 +/− 1.4

**Q.** What about the “Evaluation of biopsy wounds” value ([5]; Total) of the same compound?
**A.** 5.5 +/− 1.1

**Q.** And the Exudation ([5]; Total)?
**A.** 12.3 ± 1.1 µL

**Q.** And the Film transparency ([5]; Total)?
**A.** 9.9 +/− 1.1

**Q.** And the Flexibility ([5]; Total)?
**A.** 12.1 +/− 2.9

**Q.** And the Fluid accumulation ([5]; Total)?
**A.** 10.1 +/− 1.2

**Q.** And the Wound adherence ([5]; Total)?
**A.** 14.5 +/− 0.9

**Q.** And the Period for epithelization ([5]; rat, in vivo)?
**A.** 9.8 ± 0.8 days

**Q.** And the Scar formation ([5]; rat, in vivo)?
**A.** 1.3 +/− 0.4 Score

**Q.** And the “Time taken for complete wound closure” value ([5]; rat, in vivo)?
**A.** 19.6 ± 2.2 days

**Q.** And the “aldose reductase inhibition (in words)” value [1]?
**A.** effective aldose reductase inhibition

**Q.** What about the IC50 [1] of the same compound?
**A.** 160 µM

**Q.** How did the IC50 [1] turn out when `CC(C)NCC(O)c1ccc(NS(C)(=O)=O)cc1` (centres unmarked) [Sotalol, sotalol hydrochloride] was run?
**A.** > 350 µM

**Q.** What does the source list for `CC(C)NCC(O)COc1cccc2ccccc12.Cl` (centres unmarked) [Propranolol, propranolol hydrochloride]?
**A.** Sorbitol concentration in RBC ([2]; RBC under 30 mM glucose + 350 μM of propranolol): 18.25 µg/mL; aldose reductase inhibition (in words) [1]: effective aldose reductase inhibition; IC50 [1]: 350 µM
